Measured values taken from ChEMBL document CHEMBL1156408, “Parasitenone, a new epoxycyclohexenone related to gabosine from the marine-derived fungus Aspergillus parasiticus” (J Nat Prod, 2002).

Key:
Type in all cases: functional
[1] = Antioxidant activity assessed as peroxy nitrite free radical scavenging activity
[2] = test system: Radical scavenging activity; assay: Antioxidant activity assessed as DPPH free radical scavenging activity
[3] = Antioxidant activity assessed as nitric oxide radical scavenging activity
[4] = Antioxidant activity assessed as superoxide radical scavenging activity

IC50 [1] | IC50 [2] | IC50 [3] | IC50 [4] | SMILES
52.6 µM | 57 µM | – | – | O=C1C=C(CO)[C@H](O)[C@@H]2O[C@H]12 [PARASITENONE]
3.1 µM | 0.6 µM | 0.5 µM | 11 µM | OCc1cc(O)c(O)c(Cl)c1
2.2 µM | 1.4 µM | 0.4 µM | > 50 µM | OCc1cc(O)ccc1O [GENTISYL ALCOHOL]

SMILES | IC50 [1] | IC50 [2] | IC50 [3] | IC50 [4]
CC1(C)N([O])C(c2ccc(C(=O)O)cc2)=[N+]([O-])C1(C)C | – | – | 138 µM | –
